Results as given in patent US9468212B2, “Antifungal compositions” (DSM IP ASSETS B.V., priority 2013, dated 2016).
Values joined by “and” are separate entries in the source; they are usually repeats but may differ in a detail not shown here. Equal values may be shown once.

Experiments:
[1] = system: mould; test: Treatment of pineapples: mould incidence on the pineapple rinds after storage (Example 11); assay type: in vivo; conditions: 200 ppm natamycin, 250 ppm fludioxonil or both, 28 days of storage (21 days at 7.5° C., 7 days at 18 to 20° C.)
Text: In this experiment pineapples were selected from a packing plant located in Costa Rica. These pineapples were selected based on uniformity in color and size. Furthermore, they were free from visual mold growth or any other visual damage caused by plagues or diseases.
The surface of the pineapples was first disinfected by immersion of the fruits for one minute in a solution comprising 150 ppm sodium hypochlorite. Next, the fruits were dried and thereafter the antimicrobial compositions were applied on the fruits using a modified watering can. This shower, to simulate the wax cascade used in pineapple packing plants, covered the rind of the fruits with a thin film of wax. The crown of the pineapple was not treated. […]
After 28 days, the mould incidence on the pineapple rinds was assessed using the following method. The number of pineapples with visual mould incidence on the rind per total of 40 pineapples was counted for all compositions. Subsequently, the antifungal activity (in %) of the individual and combined active ingredients (compositions B, C and D) was determined by calculating the reduction in mould incidence observed on the pineapple rind compared to composition A. The observed antifungal activity of composition D was compared to the expected antifungal activity of composition D according to the Colby method (Colby, 1967) as described in Example 5.

[2] = system: Botrytis cinerea; test: Treatment of strawberries: wounded, inoculated with Botrytis cinerea, dipped in antifungal composition (Examples 5, 6); assay type: in vivo; conditions: 20° C.
Description: Twelve fresh, organic strawberries were used per treatment. Each strawberry was wounded with a 0.5 mm long cut and each wound was inoculated with 10 μl of a Botrytis cinerea suspension containing 1×10^5 of spores/ml. After a 3-hour incubation period at 20° C., each strawberry was dipped individually for 1 minute in a freshly prepared aqueous antifungal composition comprising either 500 ppm natamycin (DSM Food Specialties, Delft, The Netherlands), 500 ppm fludioxonil or both. Each antifungal composition also comprised 3.2% (w/w) beeswax, 0.8% (w/w) glycerol, 0.7% (w/w) polyoxyethylene sorbitan monostearate (Tween 60), 0.1% (w/w) polyoxyethylene sorbitan monooleate (Tween 80), 0.05% (w/w) methylhydroxyethyl-cellulose (MH EC), 0.03% (w/w) anti-foaming agent, 0.02% (w/w) xanthan gum, 0.02% (w/w) citric acid, 0.01% (w/w) lactic acid and 0.01% potassium sorbate. A composition without natamycin or fludioxonil was used as control. […] The treated strawberries were incubated in a closed box in the dark at 20° C. for 19 days.
The expected antifungal activity (E in %) of the combined antifungal composition comprising both active ingredients was calculated according to the Colby equation (Colby, 1967): E=X+Y−[(X·Y)/100] wherein X and Y are the observed antifungal activities (in %) of the individual active ingredients X and Y, respectively.
The experiment was conducted as described in Example 5, except for the fact that each wounded and inoculated strawberry was dipped individually for 1 minute in a freshly prepared aqueous antifungal composition comprising either 250 ppm natamycin (DSM Food Specialties, Delft, The Netherlands), 250 ppm fludioxonil or both. During incubation, the treated strawberries were assessed on mould growth according to the two methods described in Example 5.

[3] = 250 ppm natamycin, 250 ppm fludioxonil or both, 6 days
[4] = 250 ppm natamycin, 250 ppm fludioxonil or both, 7 days
[5] = 250 ppm natamycin, 250 ppm fludioxonil or both, 8 days
[6] = 250 ppm natamycin, 250 ppm fludioxonil or both, 9 days
[7] = 250 ppm natamycin, 250 ppm fludioxonil or both, 10 days
[8] = 250 ppm natamycin, 250 ppm fludioxonil or both, 11 days
[9] = 250 ppm natamycin, 250 ppm fludioxonil or both, 12 days
[10] = 250 ppm natamycin, 250 ppm fludioxonil or both, 13 days
[11] = 250 ppm natamycin, 250 ppm fludioxonil or both, 14 days
[12] = 250 ppm natamycin, 250 ppm fludioxonil or both, 15 days
[13] = 250 ppm natamycin, 250 ppm fludioxonil or both, 16 days
[14] = 250 ppm natamycin, 250 ppm fludioxonil or both, 18 days
[15] = 250 ppm natamycin, 250 ppm fludioxonil or both, 19 days
[16] = 250 ppm natamycin, 250 ppm fludioxonil or both, Day 6-8
[17] = 250 ppm natamycin, 250 ppm fludioxonil or both, Day 9
[18] = 250 ppm natamycin, 250 ppm fludioxonil or both, Day 10
[19] = 250 ppm natamycin, 250 ppm fludioxonil or both, Day 11
[20] = 250 ppm natamycin, 250 ppm fludioxonil or both, Day 12
[21] = 250 ppm natamycin, 250 ppm fludioxonil or both, Day 13
[22] = 250 ppm natamycin, 250 ppm fludioxonil or both, Day 14
[23] = 250 ppm natamycin, 250 ppm fludioxonil or both, Day 15
[24] = 500 ppm natamycin, 500 ppm fludioxonil or both, 7 days
[25] = 500 ppm natamycin, 500 ppm fludioxonil or both, 8 days
[26] = 500 ppm natamycin, 500 ppm fludioxonil or both, 9 days
[27] = 500 ppm natamycin, 500 ppm fludioxonil or both, 10 days
[28] = 500 ppm natamycin, 500 ppm fludioxonil or both, 11 days
[29] = 500 ppm natamycin, 500 ppm fludioxonil or both, 12 days
[30] = 500 ppm natamycin, 500 ppm fludioxonil or both, 13 days
[31] = 500 ppm natamycin, 500 ppm fludioxonil or both, 14 days
[32] = 500 ppm natamycin, 500 ppm fludioxonil or both, 15 days
[33] = 500 ppm natamycin, 500 ppm fludioxonil or both, 16 days
[34] = 500 ppm natamycin, 500 ppm fludioxonil or both, 18 days
[35] = 500 ppm natamycin, 500 ppm fludioxonil or both, 19 days
[36] = 500 ppm natamycin, 500 ppm fludioxonil or both, Day 7
[37] = 500 ppm natamycin, 500 ppm fludioxonil or both, Day 8
[38] = 500 ppm natamycin, 500 ppm fludioxonil or both, Day 9
[39] = 500 ppm natamycin, 500 ppm fludioxonil or both, Day 10-11
[40] = 500 ppm natamycin, 500 ppm fludioxonil or both, Day 12
[41] = 500 ppm natamycin, 500 ppm fludioxonil or both, Day 13
[42] = 500 ppm natamycin, 500 ppm fludioxonil or both, Day 14
[43] = 500 ppm natamycin, 500 ppm fludioxonil or both, Day 15
[44] = 500 ppm natamycin, 500 ppm fludioxonil or both, Day 16-17

C[C@@H]1C/C=C/C=C/C=C/C=C/[C@H](O[C@@H]2O[C@H](C)[C@@H](O)[C@H](N)[C@@H]2O)C[C@@H]2O[C@](O)(C[C@@H](O)C[C@H]3O[C@@H]3/C=C/C(=O)O1)C[C@H](O)[C@H]2C(=O)O [Natamycin, natamycin]
Observed antifungal activity O (%) [1]: 35%
Observed antifungal activity O (%) [2, 3]: 23%
Observed antifungal activity O (%) [2, 4]: 23%
Observed antifungal activity O (%) [2, 5]: 18%
Observed antifungal activity O (%) [2, 6]: 13%
Observed antifungal activity O (%) [2, 7]: 4.8%
Observed antifungal activity O (%) [2, 8]: 4.8%
Observed antifungal activity O (%) [2, 9]: 1.2%
Observed antifungal activity O (%) [2, 10]: 1.2%
Observed antifungal activity O (%) [2, 11]: 1.2%
Observed antifungal activity O (%) [2, 12]: 0%
Observed antifungal activity O (%) [2, 13]: 0%
Observed antifungal activity O (%) [2, 14]: 0%
Observed antifungal activity O (%) [2, 15]: 0%
Number of moulded strawberries/total number of 12 strawberries [2, 16]: 11 and 11/12
Number of moulded strawberries/total number of 12 strawberries [2, 17]: 11 and 11/12
Number of moulded strawberries/total number of 12 strawberries [2, 18]: 12 and 12/12
Number of moulded strawberries/total number of 12 strawberries [2, 19]: 12 and 12/12
Number of moulded strawberries/total number of 12 strawberries [2, 20]: 12 and 12/12
Number of moulded strawberries/total number of 12 strawberries [2, 21]: 12 and 12/12
Number of moulded strawberries/total number of 12 strawberries [2, 22]: 12 and 12/12
Number of moulded strawberries/total number of 12 strawberries [2, 23]: 12 and 12/12
Observed antifungal activity O (%) [2, 24]: 11%
Observed antifungal activity O (%) [2, 25]: 14%
Observed antifungal activity O (%) [2, 26]: 4.8%
Observed antifungal activity O (%) [2, 27]: 2.4%
Observed antifungal activity O (%) [2, 28]: 2.4%
Observed antifungal activity O (%) [2, 29]: 0%
Observed antifungal activity O (%) [2, 30]: 0%
Observed antifungal activity O (%) [2, 31]: 0%
Observed antifungal activity O (%) [2, 32]: 0%
Observed antifungal activity O (%) [2, 33]: 0%
Observed antifungal activity O (%) [2, 34]: 0%
Observed antifungal activity O (%) [2, 35]: 0%
Number of moulded strawberries/total number of 12 strawberries [2, 36]: 12 and 12/12
Number of moulded strawberries/total number of 12 strawberries [2, 37]: 12 and 12/12
Number of moulded strawberries/total number of 12 strawberries [2, 38]: 12 and 12/12
Number of moulded strawberries/total number of 12 strawberries [2, 39]: 12 and 12/12
Number of moulded strawberries/total number of 12 strawberries [2, 40]: 12 and 12/12
Number of moulded strawberries/total number of 12 strawberries [2, 41]: 12 and 12/12
Number of moulded strawberries/total number of 12 strawberries [2, 42]: 12 and 12/12
Number of moulded strawberries/total number of 12 strawberries [2, 43]: 12 and 12/12
Number of moulded strawberries/total number of 12 strawberries [2, 44]: 12 and 12/12

N#Cc1c[nH]cc1-c1cccc2c1OC(F)(F)O2 [Fludioxonil, fludioxonil]
Observed antifungal activity O (%) [1]: 90%
Observed antifungal activity O (%) [2, 3]: 89%
Observed antifungal activity O (%) [2, 4]: 81%
Observed antifungal activity O (%) [2, 5]: 81%
Observed antifungal activity O (%) [2, 6]: 69%
Observed antifungal activity O (%) [2, 7]: 55%
Observed antifungal activity O (%) [2, 8]: 44%
Observed antifungal activity O (%) [2, 9]: 32%
Observed antifungal activity O (%) [2, 10]: 26%
Observed antifungal activity O (%) [2, 11]: 19%
Observed antifungal activity O (%) [2, 12]: 11%
Observed antifungal activity O (%) [2, 13]: 6.0%
Observed antifungal activity O (%) [2, 14]: 1.2%
Observed antifungal activity O (%) [2, 15]: 0%
Number of moulded strawberries/total number of 12 strawberries [2, 16]: 5 and 5/12
Number of moulded strawberries/total number of 12 strawberries [2, 17]: 8 and 8/12
Number of moulded strawberries/total number of 12 strawberries [2, 18]: 9 and 9/12
Number of moulded strawberries/total number of 12 strawberries [2, 19]: 10 and 10/12
Number of moulded strawberries/total number of 12 strawberries [2, 20]: 12 and 12/12
Number of moulded strawberries/total number of 12 strawberries [2, 21]: 12 and 12/12
Number of moulded strawberries/total number of 12 strawberries [2, 22]: 12 and 12/12
Number of moulded strawberries/total number of 12 strawberries [2, 23]: 12 and 12/12
Observed antifungal activity O (%) [2, 24]: 90%
Observed antifungal activity O (%) [2, 25]: 80%
Observed antifungal activity O (%) [2, 26]: 67%
Observed antifungal activity O (%) [2, 27]: 56%
Observed antifungal activity O (%) [2, 28]: 52%
Observed antifungal activity O (%) [2, 29]: 44%
Observed antifungal activity O (%) [2, 30]: 33%
Observed antifungal activity O (%) [2, 31]: 24%
Observed antifungal activity O (%) [2, 32]: 17%
Observed antifungal activity O (%) [2, 33]: 13%
Observed antifungal activity O (%) [2, 34]: 4.8%
Observed antifungal activity O (%) [2, 35]: 3.6%
Number of moulded strawberries/total number of 12 strawberries [2, 36]: 3 and 3/12
Number of moulded strawberries/total number of 12 strawberries [2, 37]: 5 and 5/12
Number of moulded strawberries/total number of 12 strawberries [2, 38]: 8 and 8/12
Number of moulded strawberries/total number of 12 strawberries [2, 39]: 9 and 9/12
Number of moulded strawberries/total number of 12 strawberries [2, 40]: 9 and 9/12
Number of moulded strawberries/total number of 12 strawberries [2, 41]: 11 and 11/12
Number of moulded strawberries/total number of 12 strawberries [2, 42]: 12 and 12/12
Number of moulded strawberries/total number of 12 strawberries [2, 43]: 12 and 12/12
Number of moulded strawberries/total number of 12 strawberries [2, 44]: 12 and 12/12
